Assay [1] concerns Candida albicans IFO 0583. Briefly: Paper disc agar diffusion, growth inhibition zone, Candida albicans IFO 0583. The format is cell-based. The settings on record: Table 5, Medium A, 28° C., two-day culture, 1000 μ/ml, 8 mm disc; for zone of inhibition at 1000 µg/mL: Candida albicans, IFO0583, 48 h, read-out: Diameter of growth-inhibition zone. The protocol: Evaluation of the antifungal activities of the compound of formula (I) was conducted by the following method: a sheet of filter paper disc (manufactured by Toyo Seisakusho, 8 mm in diameter) soaked in a […] solution of a compound of formula (I) in methanol was placed on an agar plate containing various fungi, which was incubated at 28° C. for two days, and the diameter of the growth inhibition zone around the filter paper disc was measured. The following culture media were used: A: yeast nitrogen base agar medium (pH 7.0) B: Sabouraud agar medium
cpd. No. (Medium A, 28° C., two-day culture)
(In agar diffusion tests the substance spreads into inoculated agar from a disc or well.)

Assay [2] relates to Candida albicans. Briefly: Protective effect against Candida albicans infection in mice. The format is in vivo, Crj:CDF1 mice. The settings on record: 168 h, minimum lethal dose of Candida albicans iv, drug once immediately after infection, survival 7 days after infection. An excerpt: Test Method: Five-week old Crj:CDF1 mice were inoculated with the minimum lethal dose of Candida albicans intravenously. The test drug was given once immediately after infection. The effectiveness of the drug was expressed in ED50 values calculated by the Reed and Muench method from the survival rate 7 days after infection.

Molecules are shown by their SMILES.

Data on 34 molecules can be found in patent US5389663A, “1-(1h-1,2,4-triazole-yl)-2-propanol compounds” (Takeda Chemical Industries, Ltd., priority 1991, dated 1995).

One may read the ED50 as the midpoint of the dose-response relation. Low readings indicate an effect at a small dose, high ones a need for a large dose. For orientation: zone of inhibition means the extent of the growth-free halo in a diffusion test.

On to `CC(=C(Cn1cncn1)c1ccc(F)cc1F)S(=O)(=O)N(C)C` (single isomer, unassigned) [Compound 35, N,N-dimethyl-3-(2,4-difluorophenyl)-4-(1H-1,2,4-triazol-1-yl)-2-butene-2-sulfonamide], for which the “Diameter of growth-inhibition zone” value in assay [1] was 30 mm. In addition, in assay [2] (po), the ED50 was 20 mg/kg. With `CCCCNS(=O)(=O)[C@H](C)[C@](O)(Cn1cncn1)c1ccc(F)cc1F` [Compound 4, N-butyl-[(2R,3R)-3-(2,4-difluorophenyl)-3-hydroxy-4-(1H-1,2,4-triazol-1-yl)-2-butane]sulfonamide], the zone of inhibition at 1000 µg/mL in assay [1] is 40 mm. Also, the 50% effect level in assay [2] (po) (ED50) was put at a dose of 7.07 mg/kg. Consider `C[C@H]([C@](O)(Cn1cncn1)c1ccc(F)cc1F)S(=O)(=O)NC1CCCCC1` [Compound 6, N-cyclohexyl-[(2R,3R)-3(2,4-difluorophenyl)-3-hydroxy-4-(1H-1,2,4-triazol-1-yl)-2-butane]sulfonamide], for which, in assay [1], the zone of inhibition at 1000 µg/mL was 40 mm. In addition, the median effective dose (ED50) in assay [2] (po) is 7.07 mg/kg. In the case of `C[C@H]([C@](O)(Cn1cncn1)c1ccc(F)cc1F)S(=O)(=O)N1CCOCC1` [Compound 8, 4-[(2R,3R)-3-(2,4-difluorophenyl)-3-hydroxy-4-(1H-1,2,4-triazol-1-yl)-2-butylsulfonyl]morpholine], the zone of inhibition at 1000 µg/mL in assay [1] turned out to be 40 mm. Also, the ED50 in assay [2] (po) came to 20 mg/kg; in assay [2] (sc), 28.3 mg/kg. Take `C[C@H]([C@](O)(Cn1cncn1)c1ccc(F)cc1F)S(=O)(=O)NC1CC1` [Compound 10, N-cyclopropyl-[(2R,3R)-3-(2,4-difluorophenyl)-3-hydroxy-4-(1H-1,2,4-triazol-1-yl)-2-butane]sulfonamide]: in assay [1], the zone of inhibition at 1000 µg/mL was 35 mm. Moreover, the median effective dose (ED50) was 7.07 mg/kg in assay [2] (po) and 14.1 mg/kg in assay [2] (sc). Take `CNS(=O)(=O)[C@H](C)[C@](O)(Cn1cncn1)c1ccc(F)cc1F` [Compound 12, N-methyl-[(2R,3R)-3-(2,4-difluorophenyl)-3-hydroxy-4(1H -1,2,4-triazol-1-yl)-2-butane]sulfonamide]: the zone of inhibition at 1000 µg/mL in assay [1] turned out to be 37 mm. In assay [2] (po), this molecule registered an ED50 of 5 mg/kg. The like results for `CCNS(=O)(=O)[C@H](C)[C@](O)(Cn1cncn1)c1ccc(F)cc1F` [Compound 14, N-ethyl-[(2R,3R)-3-(2,4-difluorophenyl)-3-hydroxy-4-(1H-1,2,4-triazol-1-yl)-2-butane]sulfonamide] were, in that order, 38 mm and 5 mg/kg. The like results for `CCCNS(=O)(=O)[C@H](C)[C@](O)(Cn1cncn1)c1ccc(F)cc1F` [Compound 16, N-propyl-[(2R,3R)-3-(2,4-difluorophenyl)-3-hydroxy-4-(1H-1,2,4-triazol-1-yl)-2butane]sulfonamide] were, in that order, 40 mm and 5 mg/kg. Consider `C[C@H]([C@](O)(Cn1cncn1)c1ccc(F)cc1F)S(=O)(=O)NCC(F)(F)F` [Compound 39, N-(2,2,2-trifluoroethyl)-[(2R,3R)-3-(2,4-difluorophenyl)-3-hydroxy-4-(1H-1,2,4-triazol-1-yl)-2-butane]sulfonamide], for which the zone of inhibition at 1000 µg/mL in assay [1] came to 40 mm. Further, in assay [2] (po), the ED50 turned out to be 8 mg/kg.

With `C[C@H]([C@](O)(Cn1cncn1)c1ccc(F)cc1F)S(=O)(=O)N(C)CC(F)(F)F` [Compound 46, N-methyl-N-(2,2,2-trifluoroethyl)-[(2R,3R)-3-(2,4-difluorophenyl)-3-hydroxy-4-(1H-1,2,4-triazol-1-yl)-2-butane]sulfonamide], the zone of inhibition at 1000 µg/mL in assay [1] stood at 45 mm. The 50% effect level in assay [2] (po) (ED50) was put at a dose of 8 mg/kg. The like results for `CCN(C)S(=O)(=O)[C@H](C)[C@](O)(Cn1cncn1)c1ccc(F)cc1F` [Compound 48, N-ethyl-N-methyl[(2R,3R)-3-(2,4-difluorophenyl)-3-hydroxy-4-(1H-1,2,4-triazol-1-yl)-2-butane]sulfonamide] were, in that order, 48 mm and 11.3 mg/kg. With `C[C@@H](NS(C)(=O)=O)[C@](O)(Cn1cncn1)c1ccc(F)cc1F` [Compound 49, N-[(2R,3R)-3-(2,4-difluorophenyl)-3-hydroxy-4-(1H-1,2,4-triazol-1-yl)-2-butyl]methanesulfonamide], the zone of inhibition at 1000 µg/mL in assay [1] was 30 mm. Further, it took a dose of 1.8 mg/kg to reach the 50% effect level in assay [2] (po) (ED50). Take `C[C@@H](NS(=O)(=O)c1ccc([N+](=O)[O-])cc1)[C@](O)(Cn1cncn1)c1ccc(F)cc1F` [Compound 51]: in assay [1], the zone of inhibition at 1000 µg/mL is 38 mm. Also, in assay [2] (po), the ED50 was determined as 8 mg/kg. The like results for `C[C@@H](N(C)S(C)(=O)=O)[C@](O)(Cn1cncn1)c1ccc(F)cc1F` [Compound 53, N-[(2R,3R)-3-(2,4-difluorophenyl)-3-hydroxy-4-(1H-1,2,4-triazol-1-yl) -2-butyl]-N-methylmethanesulfornamide] were, in that order, 40 mm and 3.5 mg/kg. For the molecule `C[C@@H](N(C)S(=O)(=O)CC(F)(F)F)[C@](O)(Cn1cncn1)c1ccc(F)cc1F` [Compound 54], the zone of inhibition at 1000 µg/mL in assay [1] turned out to be 40 mm. The molecule also displayed an ED50 in assay [2] (po) of 3.5 mg/kg. For `C[C@@H](NS(=O)(=O)CC(F)(F)F)[C@](O)(Cn1cncn1)c1ccc(F)cc1F` [Compound 55], in assay [1], the zone of inhibition at 1000 µg/mL was 35 mm. In assay [2] (po), this molecule yielded a 50% effective dose (ED50) of 2 mg/kg. For `C[C@H]([C@](O)(Cn1cncn1)c1ccc(F)cc1F)S(=O)(=O)NCc1ccccc1` [Compound 58, N-benzyl-[(2R,3R)-3-(2,4-difluorophenyl)-3-hydroxy-4-(1H-1,2,4-triazol-1-yl)-2-butane]sulfonamide], in that order: 40 mm and 8 mg/kg.

For `C[C@H]([C@](O)(Cn1cncn1)c1ccc(F)cc1F)S(=O)(=O)N(C)C/C=C/C#CC(C)(C)C` [Compound 68, N-[(E)-6,6-dimethyl-2-hepten-4-ynyl]-N-methyl-[(2R,3R)-3-(2,4-difluorophenyl)-3-hydroxy-4-(1H-1,2,4-triazol-1-yl)-2-butane]sulfonamide], the zone of inhibition at 1000 µg/mL in assay [1] came to 42 mm.

Consider `C[C@H]([C@](O)(Cn1cncn1)c1ccc(F)cc1F)S(=O)(=O)N(C)C/C=C\C#CC(C)(C)C` [Compound 69], for which, in assay [1], the zone of inhibition at 1000 µg/mL stood at 42 mm.

For the molecule `COc1ccc(N2CCN(S(=O)(=O)[C@H](C)[C@](O)(Cn3cncn3)c3ccc(F)cc3F)CC2)cc1` [Compound 72, 4-[(2R,3R)-3-(2,4-difluorophenyl)-3-hydroxy-4-(1H-1,2,4-triazol-1-yl)-2-butanesulfonyl]-1-(4-methoxyphenyl)piperazine], the zone of inhibition at 1000 µg/mL in assay [1] worked out at 48 mm. Regarding `C[C@H]([C@](O)(Cn1cncn1)c1ccc(F)cc1F)S(=O)(=O)N1CCN(c2ccccn2)CC1` [Compound 74, 4-[(2R,3R)-3-(2,4-difluorophenyl)-3-hydroxy-4-(1H-1,2,4-triazol-1-yl)-2-butanesulfonyl]-1-(2-pyridyl) piperazine], the zone of inhibition at 1000 µg/mL in assay [1] is 44 mm. Same read-out and setting: in the case of `C[C@H]([C@](O)(Cn1cncn1)c1ccc(F)cc1F)S(=O)(=O)N(C)c1ncccn1` [Compound 77, N-methyl-N-(2-pyrimidinyl)-[(2R,3R)-3-(2,4-difluorophenyl)-3-hydroxy-4-(1H-1,2,4-triazol-1-yl)-2-butane]sulfonamide] it was 40 mm. On the same count and under the same terms, in the case of `C[C@H]([C@](O)(Cn1cncn1)c1ccc(F)cc1F)S(=O)(=O)N(C)Cc1ccccn1` [Compound 79] it was 30 mm; in that of `Cc1ncsc1CCN(C)S(=O)(=O)[C@H](C)[C@](O)(Cn1cncn1)c1ccc(F)cc1F` [Compound 80], 40 mm. As for `Cc1nnc(N(C)S(=O)(=O)[C@H](C)[C@](O)(Cn2cncn2)c2ccc(F)cc2F)s1` [Compound 81], in assay [1], the zone of inhibition at 1000 µg/mL stood at 40 mm. Still for that read-out and setting: the same measure for `CSc1nnc(CN(C)S(=O)(=O)[C@H](C)[C@](O)(Cn2cncn2)c2ccc(F)cc2F)s1` [Compound 82]: 40 mm; for `CSc1nnc(CCN(C)S(=O)(=O)[C@H](C)[C@](O)(Cn2cncn2)c2ccc(F)cc2F)s1` [Compound 83]: 40 mm; for `C[C@H]([C@](O)(Cn1cncn1)c1ccc(F)cc1F)S(=O)(=O)N(C)CCc1nnc(S(C)(=O)=O)s1` [Compound 84]: 23 mm. In the case of `C[C@H]([C@](O)(Cn1ccnc1)c1ccc(F)cc1F)S(=O)(=O)N(C)C` [Compound 85, N,N-dimethyl-[(2R,3R)-3-(2,4-difluorophenyl)-3-hydroxy-4-(1-imidazolyl)-2-butane]sulfonamide], the zone of inhibition at 1000 µg/mL in assay [1] amounted to 45 mm.

Consider `C[C@@H](NS(=O)(=O)c1cccs1)[C@](O)(Cn1cncn1)c1ccc(F)cc1F` [Compound 87], for which the zone of inhibition at 1000 µg/mL in assay [1] was determined as 38 mm. The same measure, in the same setting: in the case of `C[C@@H](N(C)S(=O)(=O)c1nccn1C)[C@](O)(Cn1cncn1)c1ccc(F)cc1F` [Compound 88] it was 46 mm; in that of `CC(=O)Nc1nc(C)c(S(=O)(=O)N(C)[C@H](C)[C@](O)(Cn2cncn2)c2ccc(F)cc2F)s1` [Compound 89], 35 mm; in that of `C[C@@H](N(C)S(=O)(=O)c1cccs1)[C@](O)(Cn1cncn1)c1ccc(F)cc1F` [Compound 90], 40 mm.

With `C[C@H]([C@](O)(Cn1cncn1)c1ccc(F)cc1F)S(=O)(=O)N1CCN(c2ncncc2F)CC1` [Compound 92], the zone of inhibition at 1000 µg/mL in assay [1] turned out to be 53 mm.
